The assay has as its target T1, retinoid X receptor α (RXRα) (Homo sapiens, UniProt P19793).
T1 sequence (P19793 223-462): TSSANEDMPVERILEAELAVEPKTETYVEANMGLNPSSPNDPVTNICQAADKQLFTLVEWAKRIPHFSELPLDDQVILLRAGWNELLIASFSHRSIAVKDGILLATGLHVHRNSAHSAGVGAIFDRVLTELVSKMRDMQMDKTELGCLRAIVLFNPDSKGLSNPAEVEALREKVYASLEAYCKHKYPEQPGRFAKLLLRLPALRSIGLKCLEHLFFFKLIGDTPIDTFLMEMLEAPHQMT
Type of assay: binding.

For orientation: IC50 means the concentration that gives 50% inhibition. Read a high IC50 as a need for much substance.

As to `C[C@@H](C(=O)O)c1ccc(-c2ccccc2)c(F)c1` [R-Flur, (R)-flurbiprofen], the half-maximal inhibitory concentration (IC50) was roughly 75 µM.

The values are drawn from paper PMC3401643 (2009).
